Laboratory results published in ChEMBL document CHEMBL5154941, “Structural Modifications of Nimodipine Lead to Novel PDE1 Inhibitors with Anti-pulmonary Fibrosis Effects” (J Med Chem, 2022).
pIC50: −log10 of the molar value. Active and inactive are the calls of the source. No cut-off for these calls is given here.

Experiments:
Rattus norvegicus [1] = assay: Antifibrotic activity in bleomycin-induced Sprague-Dawley rat lung fibrosis model assessed as reduced septal enlargement at 5 mg/kg, ip administered daily for 28 days by hematoxylin and eosin staining based histopathological analysis; type: functional, organism-based; details: time 28.0 day
Rattus norvegicus [2] = assay: Antifibrotic activity in bleomycin-induced Sprague-Dawley rat lung fibrosis model assessed as decrease in collagen deposition at 2.5 to 5 mg/kg, ip administered daily for 28 days by Masson's trichrome staining based analysis; type: functional, organism-based; details: dose 2.5-5 mg/kg, time 28.0 day
Rattus norvegicus [3] = assay: Antifibrotic activity in bleomycin-induced Sprague-Dawley rat lung fibrosis model assessed as decrease in lung fibrosis at 2.5 to 5 mg/kg, ip administered daily for 28 days by Masson's trichrome staining based analysis; type: functional, organism-based; details: dose 2.5-5 mg/kg, time 28.0 day
Rattus norvegicus [4] = assay: Antifibrotic activity in bleomycin-induced Sprague-Dawley rat lung fibrosis model assessed as decrease in alpha-smooth muscle actin level at 2.5 to 5 mg/kg, ip administered daily for 28 days by Western blot analysis; type: functional, organism-based; details: dose 2.5-5 mg/kg, time 28.0 day
Rattus norvegicus [5] = assay: Antifibrotic activity in bleomycin-induced Sprague-Dawley rat lung fibrosis model assessed as decrease in collagen I level at 2.5 to 5 mg/kg, ip administered daily for 28 days by Western blot analysis; type: functional, organism-based; details: dose 2.5-5 mg/kg, time 28.0 day
Rattus norvegicus [6] = assay: Antifibrotic activity in bleomycin-induced Sprague-Dawley rat lung fibrosis model assessed as decrease in fibronectin level at 2.5 to 5 mg/kg, ip administered daily for 28 days by Western blot analysis; type: functional, organism-based; details: dose 2.5-5 mg/kg, time 28.0 day
Rattus norvegicus [7] = assay: Antifibrotic activity in bleomycin-induced Sprague-Dawley rat lung fibrosis model assessed as suppression of TGF-beta1 level at 2.5 to 5 mg/kg, ip administered daily for 28 days by Western blot analysis; type: functional, organism-based; details: dose 2.5-5 mg/kg, time 28.0 day
Rattus norvegicus [8] = assay: Antifibrotic activity in bleomycin-induced Sprague-Dawley rat lung fibrosis model assessed as increase in cAMP level at 2.5 to 5 mg/kg, ip administered daily for 28 days by ELISA analysis; type: functional, organism-based; details: dose 2.5-5 mg/kg, time 28.0 day
Rattus norvegicus [9] = assay: Antifibrotic activity in bleomycin-induced Sprague-Dawley rat lung fibrosis model assessed as increase in cGMP level at 2.5 to 5 mg/kg, ip administered daily for 28 days by ELISA analysis; type: functional, organism-based; details: dose 2.5-5 mg/kg, time 28.0 day
HLF [10] = assay: Antifibrotic activity in TGF-beta induced HLF cell assessed as suppression of Col-I level incubated for 48 hrs by Western blot analysis; type: functional, cell-based; details: Homo sapiens, DDE = dose-dependent effect
HLF [11] = assay: Antifibrotic activity in TGF-beta induced HLF cell assessed as suppression of alpha-SMA level incubated for 48 hrs by Western blot analysis; type: functional, cell-based; details: Homo sapiens, DDE = dose-dependent effect
HLF [12] = assay: Antifibrotic activity in TGF-beta induced HLF cell assessed as suppression of FN level incubated for 48 hrs by Western blot analysis; type: functional, cell-based; details: Homo sapiens, DDE = dose-dependent effect
HLF [13] = assay: Antifibrotic activity in TGF-beta induced HLF cell assessed as suppression of Col-I level at 10 uM incubated for 48 hrs by Western blot analysis; type: functional, cell-based; details: Homo sapiens
HLF [14] = assay: Antifibrotic activity in TGF-beta induced HLF cell assessed as suppression of alpha-SMA level at 10 uM incubated for 48 hrs by Western blot analysis; type: functional, cell-based; details: Homo sapiens
HLF [15] = assay: Antifibrotic activity in TGF-beta induced HLF cell assessed as suppression of FN level at 10 uM incubated for 48 hrs by Western blot analysis; type: functional, cell-based; details: Homo sapiens
HLF [16] = assay: Antifibrotic activity in TGF-beta induced HLF cell assessed as decrease in FN level at 10 to 20 uM incubated for 48 hrs by DAPI staining based immunofluorescence microscopic analysis; type: functional; details: Homo sapiens, dose 10-20 µM
HLF [17] = assay: Antifibrotic activity in TGF-beta induced HLF cell assessed as decrease in alpha-SMA level at 10 to 20 uM incubated for 48 hrs by DAPI staining based immunofluorescence microscopic analysis; type: functional; details: Homo sapiens, dose 10-20 µM
Rattus norvegicus [18] = assay: Antifibrotic activity in bleomycin-induced Sprague-Dawley rat pulmonary fibrosis model assessed as decrease in number of lung foci at 5 mg/kg, ip administered daily for 28 days by H&E staining based histopathological analysis; type: functional, organism-based; details: time 28.0 day
Rattus norvegicus [19] = assay: Antifibrotic activity in bleomycin-induced Sprague-Dawley rat pulmonary fibrosis model assessed as smaller lung foci at 5 mg/kg, ip administered daily for 28 days by H&E staining based histopathological analysis; type: functional, organism-based; details: time 28.0 day
Cytochrome P450 2C9 = Cytochrome P450 2C9 (Homo sapiens, UniProt P11712); assay: Inhibition of CYP2C9 in human liver microsomes at 25 uM in the presence of NADPH; type: ADME, Microsome
Sequence of Cytochrome P450 2C9 (P11712 whole entry): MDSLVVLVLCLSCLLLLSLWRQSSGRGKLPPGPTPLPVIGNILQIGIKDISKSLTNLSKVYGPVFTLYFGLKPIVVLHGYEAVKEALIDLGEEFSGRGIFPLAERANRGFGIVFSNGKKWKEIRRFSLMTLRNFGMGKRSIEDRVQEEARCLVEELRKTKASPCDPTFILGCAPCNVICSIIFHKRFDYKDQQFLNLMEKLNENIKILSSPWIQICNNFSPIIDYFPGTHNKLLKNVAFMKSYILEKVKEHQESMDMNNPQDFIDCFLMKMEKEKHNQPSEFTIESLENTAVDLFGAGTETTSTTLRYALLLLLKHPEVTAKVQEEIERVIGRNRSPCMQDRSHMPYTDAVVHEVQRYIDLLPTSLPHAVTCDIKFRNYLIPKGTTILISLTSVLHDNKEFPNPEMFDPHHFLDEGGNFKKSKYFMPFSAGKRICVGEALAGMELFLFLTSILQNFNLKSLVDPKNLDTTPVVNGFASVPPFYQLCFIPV

Cytochrome P450 2C19 = Cytochrome P450 2C19 (Homo sapiens, UniProt P33261); assay: Inhibition of CYP2C19 in human liver microsomes at 25 uM in the presence of NADPH; type: ADME, Microsome
Sequence of Cytochrome P450 2C19 (P33261 whole entry): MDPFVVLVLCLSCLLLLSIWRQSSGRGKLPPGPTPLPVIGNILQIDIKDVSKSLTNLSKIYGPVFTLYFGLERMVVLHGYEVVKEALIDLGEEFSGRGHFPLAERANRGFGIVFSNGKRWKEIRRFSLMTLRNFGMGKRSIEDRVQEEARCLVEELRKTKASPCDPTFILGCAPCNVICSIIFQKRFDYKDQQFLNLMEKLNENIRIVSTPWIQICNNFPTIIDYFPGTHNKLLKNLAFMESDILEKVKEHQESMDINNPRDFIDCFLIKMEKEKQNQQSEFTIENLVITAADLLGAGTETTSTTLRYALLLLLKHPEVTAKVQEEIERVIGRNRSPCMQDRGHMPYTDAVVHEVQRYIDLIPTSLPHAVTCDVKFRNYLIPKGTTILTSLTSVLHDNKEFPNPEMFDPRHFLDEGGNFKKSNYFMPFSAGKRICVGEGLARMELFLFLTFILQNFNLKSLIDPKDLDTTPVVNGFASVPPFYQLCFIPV

[20] = biological target: Voltage-gated inwardly rectifying potassium channel KCNH2 (Homo sapiens, UniProt Q12809); assay: Inhibition of hERG ion channel expressed in CHO cells by automated patch clamp electrophysiology method; type: toxicity, cell-based
Sequence of Voltage-gated inwardly rectifying potassium channel KCNH2 (Q12809 whole entry): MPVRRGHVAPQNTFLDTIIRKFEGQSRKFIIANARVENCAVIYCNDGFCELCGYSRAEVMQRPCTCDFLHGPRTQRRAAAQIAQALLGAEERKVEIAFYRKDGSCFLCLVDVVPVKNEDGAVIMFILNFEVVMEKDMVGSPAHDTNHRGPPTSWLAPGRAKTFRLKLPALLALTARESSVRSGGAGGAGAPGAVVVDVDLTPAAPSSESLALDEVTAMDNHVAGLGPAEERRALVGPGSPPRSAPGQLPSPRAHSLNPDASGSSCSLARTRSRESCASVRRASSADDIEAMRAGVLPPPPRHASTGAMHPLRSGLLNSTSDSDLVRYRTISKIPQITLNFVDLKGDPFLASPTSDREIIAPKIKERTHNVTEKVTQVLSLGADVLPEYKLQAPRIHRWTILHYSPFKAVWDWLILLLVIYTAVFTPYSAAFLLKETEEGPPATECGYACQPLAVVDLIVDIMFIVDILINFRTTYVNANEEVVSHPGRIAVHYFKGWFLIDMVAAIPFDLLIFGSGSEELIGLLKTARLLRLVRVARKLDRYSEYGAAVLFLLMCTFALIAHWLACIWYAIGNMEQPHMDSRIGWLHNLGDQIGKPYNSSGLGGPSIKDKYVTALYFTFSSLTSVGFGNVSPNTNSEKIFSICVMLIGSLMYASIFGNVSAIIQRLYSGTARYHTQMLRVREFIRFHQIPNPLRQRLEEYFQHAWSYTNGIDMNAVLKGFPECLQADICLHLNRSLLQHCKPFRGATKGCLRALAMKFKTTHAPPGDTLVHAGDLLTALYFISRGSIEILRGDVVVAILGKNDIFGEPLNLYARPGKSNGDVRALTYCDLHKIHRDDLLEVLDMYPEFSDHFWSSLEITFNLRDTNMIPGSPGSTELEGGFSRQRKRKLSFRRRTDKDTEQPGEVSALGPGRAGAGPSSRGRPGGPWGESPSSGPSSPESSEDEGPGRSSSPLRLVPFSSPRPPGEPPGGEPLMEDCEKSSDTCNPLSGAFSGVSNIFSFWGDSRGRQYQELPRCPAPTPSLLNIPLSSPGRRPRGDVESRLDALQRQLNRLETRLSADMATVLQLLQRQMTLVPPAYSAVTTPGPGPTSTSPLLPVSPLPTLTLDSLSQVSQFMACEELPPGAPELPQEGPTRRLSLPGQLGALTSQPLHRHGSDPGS

[21] = Acute toxicity in overnight fasted KM mouse at 2000 mg/kg, po dosed daily for 14 days; type: organism-based; details: in vivo, 336 h, time 14 day
[22] = biological target: cGMP-inhibited 3',5'-cyclic phosphodiesterase 3A (Homo sapiens, UniProt Q14432); assay: Inhibition of PDE3A (679 to 1087 residues) (unknown origin) expressed in Escherichia coli BL21 using [3H]-cAMP as substrate at 10000 nM measured for 15 mins by liquid scintillation counter method
Sequence of cGMP-inhibited 3',5'-cyclic phosphodiesterase 3A (Q14432 whole entry, the tested form may be a part): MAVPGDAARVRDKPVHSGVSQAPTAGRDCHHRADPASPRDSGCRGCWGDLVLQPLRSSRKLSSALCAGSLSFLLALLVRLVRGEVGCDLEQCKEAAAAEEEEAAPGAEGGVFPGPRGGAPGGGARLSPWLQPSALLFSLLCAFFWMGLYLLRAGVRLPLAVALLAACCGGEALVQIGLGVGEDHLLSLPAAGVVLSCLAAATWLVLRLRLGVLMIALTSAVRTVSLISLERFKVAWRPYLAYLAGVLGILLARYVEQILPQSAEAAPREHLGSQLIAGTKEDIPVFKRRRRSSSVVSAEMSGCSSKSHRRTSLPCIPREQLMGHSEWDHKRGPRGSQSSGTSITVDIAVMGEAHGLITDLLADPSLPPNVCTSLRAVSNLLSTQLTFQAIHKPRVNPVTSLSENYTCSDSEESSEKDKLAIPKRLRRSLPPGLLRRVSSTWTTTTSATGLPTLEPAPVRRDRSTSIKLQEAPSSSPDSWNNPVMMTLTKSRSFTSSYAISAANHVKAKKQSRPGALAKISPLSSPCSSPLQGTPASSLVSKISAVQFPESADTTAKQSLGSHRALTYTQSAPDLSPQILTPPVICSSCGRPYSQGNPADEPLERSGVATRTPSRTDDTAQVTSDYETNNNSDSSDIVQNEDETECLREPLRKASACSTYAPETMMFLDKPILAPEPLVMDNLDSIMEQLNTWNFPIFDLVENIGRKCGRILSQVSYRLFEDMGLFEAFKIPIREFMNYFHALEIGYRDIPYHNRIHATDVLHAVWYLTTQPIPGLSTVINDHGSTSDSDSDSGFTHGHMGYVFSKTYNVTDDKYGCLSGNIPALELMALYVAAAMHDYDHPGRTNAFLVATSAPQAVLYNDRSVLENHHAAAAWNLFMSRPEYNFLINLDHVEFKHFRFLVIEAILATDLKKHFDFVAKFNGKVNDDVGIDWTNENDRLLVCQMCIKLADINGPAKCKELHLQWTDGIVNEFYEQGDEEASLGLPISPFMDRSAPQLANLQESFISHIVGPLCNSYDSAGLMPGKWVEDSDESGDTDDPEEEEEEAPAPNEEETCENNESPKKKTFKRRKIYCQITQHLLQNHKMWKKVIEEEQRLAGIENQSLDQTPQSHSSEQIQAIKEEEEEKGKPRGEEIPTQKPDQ

[23] = biological target: High affinity cAMP-specific and IBMX-insensitive 3',5'-cyclic phosphodiesterase 8A (Homo sapiens, UniProt O60658); assay: Inhibition of PDE8A (480 to 820 residues) (unknown origin) expressed in Escherichia coli BL21 using [3H]-cAMP as substrate at 10000 nM measured for 15 mins by liquid scintillation counter method
Sequence of High affinity cAMP-specific and IBMX-insensitive 3',5'-cyclic phosphodiesterase 8A (O60658 whole entry, the tested form may be a part): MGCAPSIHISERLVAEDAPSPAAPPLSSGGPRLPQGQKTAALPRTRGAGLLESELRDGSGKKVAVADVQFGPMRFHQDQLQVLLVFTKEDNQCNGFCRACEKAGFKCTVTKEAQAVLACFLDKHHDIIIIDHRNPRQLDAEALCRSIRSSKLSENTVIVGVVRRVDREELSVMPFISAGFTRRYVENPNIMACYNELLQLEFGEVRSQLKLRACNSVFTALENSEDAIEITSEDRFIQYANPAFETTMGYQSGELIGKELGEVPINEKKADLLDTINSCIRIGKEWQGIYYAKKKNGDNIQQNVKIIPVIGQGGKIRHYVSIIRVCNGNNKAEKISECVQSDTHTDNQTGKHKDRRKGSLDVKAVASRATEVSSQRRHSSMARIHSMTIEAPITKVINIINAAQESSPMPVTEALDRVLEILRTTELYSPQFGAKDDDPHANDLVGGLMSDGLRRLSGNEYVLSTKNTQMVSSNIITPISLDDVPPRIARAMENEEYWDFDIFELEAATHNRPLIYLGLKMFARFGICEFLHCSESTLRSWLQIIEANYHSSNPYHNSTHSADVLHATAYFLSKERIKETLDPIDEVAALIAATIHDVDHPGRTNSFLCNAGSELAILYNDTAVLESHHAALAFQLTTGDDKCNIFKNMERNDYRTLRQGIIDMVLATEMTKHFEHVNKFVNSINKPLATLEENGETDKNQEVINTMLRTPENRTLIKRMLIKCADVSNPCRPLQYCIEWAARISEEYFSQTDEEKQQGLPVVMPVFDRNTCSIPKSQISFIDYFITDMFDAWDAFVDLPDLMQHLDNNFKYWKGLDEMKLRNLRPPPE

[24] = biological target: High affinity cGMP-specific 3',5'-cyclic phosphodiesterase 9A (Homo sapiens, UniProt O76083); assay: Inhibition of PDE9A (181 to 506 residues) (unknown origin) expressed in Escherichia coli BL21 using [3H]-cGMP as substrate at 10000 nM measured for 15 mins by liquid scintillation counter method
Sequence of High affinity cGMP-specific 3',5'-cyclic phosphodiesterase 9A (O76083 whole entry, the tested form may be a part): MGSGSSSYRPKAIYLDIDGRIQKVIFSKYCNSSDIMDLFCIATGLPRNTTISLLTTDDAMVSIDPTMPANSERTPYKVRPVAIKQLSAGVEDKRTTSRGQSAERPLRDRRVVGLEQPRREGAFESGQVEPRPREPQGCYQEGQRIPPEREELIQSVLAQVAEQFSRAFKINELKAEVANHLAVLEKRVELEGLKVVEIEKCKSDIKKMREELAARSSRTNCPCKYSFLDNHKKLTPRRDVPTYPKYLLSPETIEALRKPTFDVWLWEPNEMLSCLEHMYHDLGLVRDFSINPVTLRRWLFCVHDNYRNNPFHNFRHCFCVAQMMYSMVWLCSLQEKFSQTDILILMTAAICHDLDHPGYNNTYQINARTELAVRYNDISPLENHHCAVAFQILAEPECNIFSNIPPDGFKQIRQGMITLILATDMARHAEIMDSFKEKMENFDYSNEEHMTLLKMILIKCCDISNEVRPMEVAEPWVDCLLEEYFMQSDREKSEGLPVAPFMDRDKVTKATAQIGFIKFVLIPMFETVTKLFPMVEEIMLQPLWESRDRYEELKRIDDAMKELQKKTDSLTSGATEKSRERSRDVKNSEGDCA

In the case of `CC1=C(C(=O)O[C@H](C)c2ccccc2)C(c2ccc3c(cnn3C)c2)C(C(=O)O[C@H](C)c2ccccc2)=C(C)N1`, the Activity (Rattus norvegicus [1]) was “Active”, the Activity (Rattus norvegicus [2]) was “Active” and the Activity (Rattus norvegicus [3]) was “Active”. The Activity (Rattus norvegicus [4]) was “Active”, the Activity (Rattus norvegicus [5]) was “Active” and the Activity (Rattus norvegicus [6]) was “Active”. For the same compound, the Activity (Rattus norvegicus [7]) was “Active”, the Activity (Rattus norvegicus [8]) was “Active” and the Activity (Rattus norvegicus [9]) was “Active”. The Activity (HLF [10]) was “Dde”, the Activity (HLF [11]) was “Dde” and the Activity (HLF [12]) was “Dde”. For the same compound, the Activity (HLF [13]) was “Active”, the Activity (HLF [14]) was “Active” and the Activity (HLF [15]) was “Active”. The Activity (HLF [16]) was “Active”, the Activity (HLF [17]) was “Active” and the Activity (Rattus norvegicus [18]) was “Active”. The Activity (Rattus norvegicus [19]) was “Active”, the pIC50 (Cytochrome P450 2C9) was 5.34 and the pIC50 (Cytochrome P450 2C19) was 5.41. For the same compound, the pIC50 [20] was < 4.40, the Activity [21] was “Non-Toxic” and the inhibition [22] was < 50%. The inhibition [23] was < 50% and the inhibition [24] was < 50%.
